In ChEMBL document CHEMBL1201862, “PubChem BioAssay data set” (2004):
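Cells were grown in 96-well plates and exposed to each compound for 48 hours at five concentrations; endpoints were interpolated linearly between bracketing concentrations, or set to the highest concentration if not reached. Abbreviation: GI50, concentration required for 50% inhibition of growth.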 Active and inactive are the calls of the source. Rule as the data show it: active = GI50 up to about 1.1 µM and inactive = higher.

How the values were obtained:
Test in all cases: NCI tumour cell line growth inhibition, 48 h
786-0 = system: 786-0
A498 = system: A498
ACHN = system: ACHN
CCRF-CEM = system: CCRF-CEM
COLO 205 = system: COLO 205
EKVX = system: EKVX
HOP-62 = system: HOP-62
HOP-92 = system: HOP-92
K562 = system: K562
LOX IMVI = system: LOX IMVI
MDA-MB-231 = system: MDA-MB-231
MOLT-4 = system: MOLT-4
Malme-3M = system: Malme-3M
NCI-H23 = system: NCI-H23
NCI-H460 = system: NCI-H460
OVCAR-3 = system: OVCAR-3
OVCAR-4 = system: OVCAR-4
SR = system: SR
T47D = system: T47D
UACC-257 = system: UACC-257

Compound	GI50 (786-0)	GI50 (A498)	GI50 (ACHN)	GI50 (CCRF-CEM)	GI50 (COLO 205)	GI50 (EKVX)	GI50 (HOP-62)	GI50 (HOP-92)	GI50 (K562)	GI50 (LOX IMVI)	GI50 (MDA-MB-231)	GI50 (MOLT-4)	GI50 (Malme-3M)	GI50 (NCI-H23)	GI50 (NCI-H460)	GI50 (OVCAR-3)	GI50 (OVCAR-4)	GI50 (SR)	GI50 (T47D)	GI50 (UACC-257)
COc1ccc(N2C(=O)C3c4[nH]c5ccc(F)cc5c4C4CCC(c5ccccc5)CC4C3C2=O)cc1 (stereo not given)	3.56 µM (inactive)	15.7 µM (inactive)	20.3 µM (inactive)	2.26 µM (inactive)	31.1 µM (inactive)	24.3 µM (inactive)	14.3 µM (inactive)	14.5 µM (inactive)	3.44 µM (inactive)	36.8 µM (inactive)	15.3 µM (inactive)	8.18 µM (inactive)	16.1 µM (inactive)	18.8 µM (inactive)	10 µM (inactive)	38.3 µM (inactive)	12.7 µM (inactive)	6.93 µM (inactive)	39.3 µM (inactive)	26.7 µM (inactive)
CC(C)(C)c1cc(OCc2nn3c(Cc4ccccc4)nnc3s2)c(Cl)cc1OCc1nn2c(Cc3ccccc3)nnc2s1	30 µM (inactive)	15 µM (inactive)	14.4 µM (inactive)	6.67 µM (inactive)	24.7 µM (inactive)	12.9 µM (inactive)	94.2 µM (inactive)	16.2 µM (inactive)	17.3 µM (inactive)	37.1 µM (inactive)	33.3 µM (inactive)	8.93 µM (inactive)	12 µM (inactive)	39.1 µM (inactive)	28.2 µM (inactive)	15.6 µM (inactive)	19.8 µM (inactive)	39.9 µM (inactive)	3.43 µM (inactive)	23.6 µM (inactive)
c1cc(-c2ccc(-c3ccc(-c4ccc(-c5ccncc5)o4)cc3)o2)ccn1	15.9 µM (inactive)	> 100 µM (inactive)	24.6 µM (inactive)	5.68 µM (inactive)	16.1 µM (inactive)	22.4 µM (inactive)	22.1 µM (inactive)	30.5 µM (inactive)	15.7 µM (inactive)	21.4 µM (inactive)	29 µM (inactive)	6.34 µM (inactive)	19.8 µM (inactive)	16.9 µM (inactive)	15.2 µM (inactive)	23 µM (inactive)	14.9 µM (inactive)	24.1 µM (inactive)	11.4 µM (inactive)	15.8 µM (inactive)
COc1ccc(N2C(=O)C3c4[nH]c5ccc(OCc6ccccc6)cc5c4C4CCC(c5ccccc5)CC4C3C2=O)cc1 (stereo not given)	2.67 µM (inactive)	23.9 µM (inactive)	7.21 µM (inactive)	4.2 µM (inactive)	10.8 µM (inactive)	19.6 µM (inactive)	3.37 µM (inactive)	3.08 µM (inactive)	4.37 µM (inactive)	15.2 µM (inactive)	6.35 µM (inactive)	14.7 µM (inactive)	2.35 µM (inactive)	9.62 µM (inactive)	4.74 µM (inactive)	57.9 µM (inactive)	1.19 µM (inactive)	2.37 µM (inactive)	7.73 µM (inactive)	42.9 µM (inactive)
COC(=O)[C@H](CCSC)NC(=O)c1ccc(CNC(=O)/C=C/c2cccc(Oc3ccccc3)c2)cc1	> 100 µM (inactive)	19.8 µM (inactive)	> 74.6 µM (inactive)	33.1 µM (inactive)	21.9 µM (inactive)	67.3 µM (inactive)	> 100 µM (inactive)	9.75 µM (inactive)	20.7 µM (inactive)	51.8 µM (inactive)	21.3 µM (inactive)	8.83 µM (inactive)	18.8 µM (inactive)	42 µM (inactive)	60.5 µM (inactive)	23.3 µM (inactive)	33.6 µM (inactive)	19.7 µM (inactive)	0.27 µM (active)	11.5 µM (inactive)
